Measured values as given in patent US20190010158A1, “ANTITUMOR EFFECT POTENTIATOR COMPRISING PYRROLOPYRIMIDINE COMPOUND” (TAIHO PHARMACEUTICAL CO., LTD, priority 2015, published 2019).

Key:
[1] = tested on: tumor cell lines shown in Table 44; experiment: Example 12: combined use with platinum-based antitumor agent, cell growth inhibition test (IC50 ratio, CI); details: for IC50 Ratio: IC50 of Reference Example Compound 55 : IC50 of other compound = 1:value; for CI: at ED50; for Comprehensive Evaluation: combined use with Reference Example Compound 55
[2] = target: T1, NAE (heterodimer of APPBP1 and UBA3) (Homo sapiens, UniProt Q8TBC4); experiment: Nedd8 conjugation inhibitory activity (AlphaScreen); format: biochemical; details: purified NAE, GST-UBC12, ATP, Biotin-Nedd8, reaction 90 minutes
T1 construct: amino acids 1 to 463 of human UBA3 protein; made in house; host or cells: Sf9 insect cells (baculovirus co-infection) for NAE; E. coli BL21 (DE3) for GST-UBC12
T1 sequence (Q8TBC4 1-463): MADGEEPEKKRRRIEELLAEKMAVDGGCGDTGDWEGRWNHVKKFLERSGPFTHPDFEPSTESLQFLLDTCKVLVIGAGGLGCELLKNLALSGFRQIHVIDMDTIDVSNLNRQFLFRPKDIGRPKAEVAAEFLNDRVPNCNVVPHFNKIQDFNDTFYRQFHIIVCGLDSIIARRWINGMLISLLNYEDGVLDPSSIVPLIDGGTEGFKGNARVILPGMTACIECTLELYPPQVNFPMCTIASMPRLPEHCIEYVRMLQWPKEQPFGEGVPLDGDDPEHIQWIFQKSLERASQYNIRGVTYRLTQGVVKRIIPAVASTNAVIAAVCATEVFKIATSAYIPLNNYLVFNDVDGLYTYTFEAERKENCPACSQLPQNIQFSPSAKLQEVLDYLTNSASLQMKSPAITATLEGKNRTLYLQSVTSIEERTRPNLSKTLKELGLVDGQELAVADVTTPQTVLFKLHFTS
T1 sequence (Q13564 1-534 partner): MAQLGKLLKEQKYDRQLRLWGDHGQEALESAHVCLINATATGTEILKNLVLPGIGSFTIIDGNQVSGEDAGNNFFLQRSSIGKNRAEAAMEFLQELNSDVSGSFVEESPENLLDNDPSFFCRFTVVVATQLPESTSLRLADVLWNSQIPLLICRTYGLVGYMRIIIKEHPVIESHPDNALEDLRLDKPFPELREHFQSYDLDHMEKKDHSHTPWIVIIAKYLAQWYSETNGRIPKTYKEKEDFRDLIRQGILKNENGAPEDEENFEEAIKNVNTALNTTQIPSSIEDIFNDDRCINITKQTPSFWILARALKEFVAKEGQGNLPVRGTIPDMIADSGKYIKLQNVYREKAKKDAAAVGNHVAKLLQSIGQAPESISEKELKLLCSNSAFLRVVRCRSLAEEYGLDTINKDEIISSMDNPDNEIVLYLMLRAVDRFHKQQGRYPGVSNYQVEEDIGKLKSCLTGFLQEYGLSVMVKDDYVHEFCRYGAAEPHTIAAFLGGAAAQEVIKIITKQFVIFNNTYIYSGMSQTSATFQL

[3] = tested on: human acute T lymphoblastic leukemia CCRF-CEM cell lines; experiment: Cell growth inhibition 1 (CellTiter-Glo); format: cell-based; details: culture with test compound 72 hours
[4] = tested on: tumor cell lines shown in Table 42; experiment: Example 11: combined use with antimetabolite, cell growth inhibition test (IC50 ratio, CI); format: cell-based; details: A431; for CI: at ED50

Row | SMILES | IC50 [2] [µM] | IC50 [3] [nM] | further results
1 | N.N.O=C([O-])C1(C(=O)[O-])CCC1.[Pt+2] [Carboplatin, carboplatin] |  |  | IC50 Ratio ([1]; A549): 38; CI ([1]; A549, Reference Example Compound 55:other compound 1:17): 0.41; CI ([1]; A549, Reference Example Compound 55:other compound 1:50): 0.87; Comprehensive Evaluation ([1]; A549): Slight
2 | N.N.[Cl][Pt][Cl] [Cisplatin, cisplatin] |  |  | IC50 Ratio ([1]; HCT116): 343; CI ([1]; HCT116, Reference Example Compound 55:other compound 1:333): 0.44; CI ([1]; HCT116, Reference Example Compound 55:other compound 1:1000): 0.72; Comprehensive Evaluation ([1]; HCT116): Moderate
3 | CS(=O)(=O)c1ccccc1C#Cc1cn([C@@H]2O[C@H](CNS(N)(=O)=O)[C@@H](O)[C@H]2O)c2ncnc(N)c12 [Reference Example 22, 4-Amino-7-[(2R,3R,4S,5R)-3,4-dihydroxy-5-[(sulfamoylamino)methyl]tetrahydrofuran-2-yl]-5-[2-(2-methylsulfonylphenyl)ethynyl]pyrrolo[2,3-d]pyrimidine] | ≤ 0.003 |  | 
4 | Nc1ncnc2c1c(C#Cc1c(F)cc(N3CCOCC3)cc1F)cn2[C@@H]1O[C@H](CNS(N)(=O)=O)[C@@H](O)[C@H]1O [Reference Example 23, 4-[4-[2-[4-Amino-7-[(2R,3R,4S,5R)-3,4-dihydroxy-5-[(sulfamoylamino)methyl]tetrahydrofuran-2-yl]pyrrolo[2,3-d]pyrimidin-5-yl]ethynyl]-3,5-difluoro-phenyl]morpholine] | ≤ 0.003 |  | 
5 | Nc1cc(F)c(C#Cc2cn([C@@H]3O[C@H](CNS(N)(=O)=O)[C@@H](O)[C@H]3O)c3ncnc(N)c23)c(F)c1 [Reference Example 24, 4-Amino-5-[2-(4-amino-2,6-difluoro-phenyl)ethynyl]-7-[(2R,3R,4S,5R)-3,4-dihydroxy-5-[(sulfamoylamino)methyl]tetrahydrofuran-2-yl]pyrrolo[2,3-d]pyrimidine] | ≤ 0.003 |  | 
6 | Nc1ncnc2c1c(C#Cc1c(F)cc(N3CCCC3=O)cc1F)cn2[C@@H]1O[C@H](CNS(N)(=O)=O)[C@@H](O)[C@H]1O [Reference Example 33, 4-Amino-5-[2-[2,6-difluoro-4-(2-oxopyrrolidin-1-yl)phenyl]ethynyl]-7-[(2R,3R,4S,5R)-3,4-dihydroxy-5-[(sulfamoylamino)methyl]tetrahydrofuran-2-yl]pyrrolo[2,3-d]pyrimidine] | ≤ 0.003 | 37 | 
7 | Nc1ncnc2c1c(C#Cc1c(F)cc(N3CC(O)C3)cc1F)cn2[C@@H]1O[C@H](CNS(N)(=O)=O)[C@@H](O)[C@H]1O [Reference Example 39, 4-Amino-5-[2-[2,6-difluoro-4-(3-hydroxyazetidin-1-yl)phenyl]ethynyl]-7-[(2R,3R,4S,5R)-3,4-dihydroxy-5-[(sulfamoylamino)methyl]tetrahydrofuran-2-yl]pyrrolo[2,3-d]pyrimidine] | ≤ 0.003 | 7.8 | 
8 | Nc1ncnc2c1c(C#Cc1c(F)cc(N3CCC[C@@H](O)C3)cc1F)cn2[C@@H]1O[C@H](CNS(N)(=O)=O)[C@@H](O)[C@H]1O [Reference Example 40, 4-Amino-5-[2-[2,6-difluoro-4-[(3R)-3-hydroxy-1-piperidyl]phenyl]ethynyl]-7-[(2R,3R,4S,5R)-3,4-dihydroxy-5-[(sulfamoylamino)methyl]tetrahydrofuran-2-yl]pyrrolo[2,3-d]pyrimidine] | ≤ 0.003 | 19 | 
9 | Nc1ncnc2c1c(C#Cc1c(F)cc(N3CCC(C(=O)O)C3)cc1F)cn2[C@@H]1O[C@H](CNS(N)(=O)=O)[C@@H](O)[C@H]1O (stereo partly drawn) [Reference Example 41, 1-[4-[2-[4-amino-7-[(2R,3R,4S,5R)-3,4-dihydroxy-5-[(sulfamoylamino)methyl]tetrahydrofuran-2-yl]pyrrolo[2,3-d]pyrimidin-5-yl]ethynyl]-3,5-difluoro-phenyl]pyrrolidine-3-carboxylic Acid] | ≤ 0.003 |  | 
10 | CCOc1cccc(F)c1C#Cc1cn([C@@H]2O[C@H](CNS(N)(=O)=O)[C@@H](O)[C@H]2O)c2ncnc(N)c12 [Reference Example 55, 4-Amino-7-[(2R,3R,4S,5R)-3,4-dihydroxy-5-[(sulfamoylamino)methyl]tetrahydrofuran-2-yl]-5-[2-(2-ethoxy-6-fluoro-phenyl)ethynyl]pyrrolo[2,3-d]pyrimidine] | ≤ 0.003 |  | 
11 | COC(=O)c1cc(F)c(C#Cc2cn([C@@H]3O[C@H](CNS(N)(=O)=O)[C@@H](O)[C@H]3O)c3ncnc(N)c23)c(F)c1 [Reference Example 58, Methyl 4-[2-[4-amino-7-[(2R,3R,4S,5R)-3,4-dihydroxy-5-[(sulfamoylamino)methyl]tetrahydrofuran-2-yl]pyrrolo[2,3-d]pyrimidin-5-yl]ethynyl]-3,5-difluoro-benzoate] | ≤ 0.003 |  | 
12 | Nc1ncnc2c1c(C#Cc1c(F)cc(N3CCS(=O)(=O)CC3)cc1F)cn2[C@@H]1O[C@H](CNS(N)(=O)=O)[C@@H](O)[C@H]1O [Reference Example 74, 4-[4-[2-[4-amino-7-[(2R,3R,4S,5R)-3,4-dihydroxy-5-[(sulfamoylamino)methyl]tetrahydrofuran-2-yl]pyrrolo[2,3-d]pyrimidin-5-yl]ethynyl]-3,5-difluoro-phenyl]-1,1-dioxo-1,4-thiazinane] | ≤ 0.003 | 160 | 
13 | CCS(=O)(=O)c1cc(N2CC[C@@H](F)C2)cc(F)c1C#Cc1cn([C@@H]2O[C@H](CNS(N)(=O)=O)[C@@H](O)[C@H]2O)c2ncnc(N)c12 [Reference Example 75, 4-Amino-7-[(2R,3R,4S,5R)-3,4-dihydroxy-5-[(sulfamoylamino)methyl]tetrahydrofuran-2-yl]-5-[2-[2-ethylsulfonyl-6-fluoro-4-[(3R)-3-fluoropyrrolidin-1-yl]phenyl]ethynyl]pyrrolo[2,3-d]pyrimidine] | ≤ 0.003 |  | 
14 | COc1ccc(C#Cc2cn([C@@H]3C[C@H](CNS(N)(=O)=O)[C@@H](O)[C@H]3O)c3ncnc(N)c23)c(S(C)(=O)=O)c1 [Reference Example 113, 4-Amino-7-[(1R,2S,3R,4R)-2,3-dihydroxy-4-[(sulfamoylamino)methyl]cyclopentyl]-5-[2-(4-methoxy-2-methylsulfonyl-phenyl)ethynyl]pyrrolo[2,3-d]pyrimidine] | ≤ 0.003 |  | 
15 | CCS(=O)(=O)c1cc(N2CCCC2)cc(F)c1C#Cc1cn([C@@H]2C[C@H](CNS(N)(=O)=O)[C@@H](O)[C@H]2O)c2ncnc(N)c12 [Reference Example 114, 4-Amino-7-[(1R,2S,3R,4R)-2,3-dihydroxy-4-[(sulfamoylamino)methyl]cyclopentyl]-5-[2-(2-ethylsulfonyl-6-fluoro-4-pyrrolidin-1-yl-phenyl)ethynyl]pyrrolo[2,3-d]pyrimidine] | ≤ 0.003 |  | 
16 | CCOc1cccc(F)c1C#Cc1cn([C@@H]2C=C(CNS(N)(=O)=O)[C@@H](O)[C@H]2O)c2ncnc(N)c12 [Reference Example 129, 4-Amino-7-[(1R,4R,5S)-4,5-dihydroxy-3-[(sulfamoylamino)methyl]cyclopent-2-en-1-yl]-5-[2-(2-ethoxy-6-fluoro-phenyl)ethynyl]pyrrolo[2,3-d]pyrimidine] | ≤ 0.003 | 2.1 | 
17 | Nc1ncnc2c1c(C#Cc1ccccc1)cn2[C@@H]1O[C@H](COS(N)(=O)=O)[C@@H](O)[C@H]1O [Reference Example 131, [(2R,3S,4R,5R)-5-[4-amino-5-(2-phenylethynyl)pyrrolo[2,3-d]pyrimidin-7-yl]-3,4-dihydroxy-tetrahydrofuran-2-yl]methyl sulfamate] | ≤ 0.003 |  | 
18 | Nc1ncnc2c1c(C#Cc1c(F)cccc1F)cn2[C@@H]1O[C@H](COS(N)(=O)=O)[C@@H](O)[C@H]1O [Reference Example 132, [(2R,3S,4R,5R)-5-[4-Amino-5-[2-(2,6-difluorophenyl)ethynyl]pyrrolo[2,3-d]pyrimidin-7-yl]-3,4-dihydroxy-tetrahydrofuran-2-yl]methyl sulfamate] | ≤ 0.003 | 1.8 | 
19 | O=c1[nH]c(=O)n([C@H]2C[C@H](O)[C@@H](CO)O2)cc1C(F)(F)F [Trifluridine, trifluridine] |  |  | IC50 Ratio ([4]; IC50 of Reference Example Compound 55 : IC50 of other compound = 1:value): 0.5; CI ([4]; Reference Example Compound 55:other compound 1:0.33): 1.06; CI ([4]; Reference Example Compound 55:other compound 1:1): 0.74; Comprehensive Evaluation ([4]; combined use with Reference Example Compound 55): Additive (0.9-1.10)
